Experiment [1] has as its target JAK1 (recombinant purified GST-tagged catalytic domain) (Homo sapiens (Human), UniProt P23458). Nature of the experiment: Jak Biochemical HTRF Assay (JAK1). Conditions: [ATP] 31.8 μM. The method, boiled down:
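Under a 120 min room-temperature, ATP-initiated reaction, peptide phosphorylation was detected by Eu-pY20/streptavidin-Dylight 650 HTRF after EDTA stop. IC50 values derive from percent inhibition curves.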

Experiment [2] has as its target JAK2 (recombinant purified GST-tagged catalytic domain) (Homo sapiens (Human), UniProt O60674). In words: Jak Biochemical HTRF Assay (JAK2). The note with it: [ATP] 8.5 μM.

Chain of JAK1 (recombinant purified GST-tagged catalytic domain) (P23458 875-1153): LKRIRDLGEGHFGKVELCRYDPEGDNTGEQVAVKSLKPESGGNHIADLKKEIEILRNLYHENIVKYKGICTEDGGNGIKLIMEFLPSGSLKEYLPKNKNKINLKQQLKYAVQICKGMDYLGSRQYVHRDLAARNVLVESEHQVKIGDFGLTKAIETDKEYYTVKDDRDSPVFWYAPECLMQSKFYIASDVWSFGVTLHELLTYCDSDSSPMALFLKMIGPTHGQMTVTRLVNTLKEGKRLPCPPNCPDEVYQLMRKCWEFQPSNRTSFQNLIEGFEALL
Chain of JAK2 (recombinant purified GST-tagged catalytic domain) (O60674 849-1124): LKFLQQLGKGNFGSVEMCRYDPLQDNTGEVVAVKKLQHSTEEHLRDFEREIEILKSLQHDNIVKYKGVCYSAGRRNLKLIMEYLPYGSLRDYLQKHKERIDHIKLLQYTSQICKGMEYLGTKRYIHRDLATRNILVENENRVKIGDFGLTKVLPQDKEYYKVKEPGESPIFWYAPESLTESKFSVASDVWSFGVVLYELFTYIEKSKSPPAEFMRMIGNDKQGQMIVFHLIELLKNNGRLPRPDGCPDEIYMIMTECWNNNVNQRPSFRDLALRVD

`Cc1cc(Nc2nn([C@]3(CC#N)CC[C@@H](C(=O)OC(C)(C)C)OC3)c3cc[nH]c(=O)c23)ccc1C(=O)N(C)CC(F)(F)F` [Example 20-15, (2S,5S)-tert-butyl 5-(cyanomethyl)-5-(3-((3-methyl-4-(methyl(2,2,2-trifluoroethyl)carbamoyl)phenyl)amino)-4-oxo-4,5-dihydro-1H-pyrazolo[4,3-c]pyridin-1-yl)tetrahydro-2H-pyran-2-carboxylate]: the IC50 in experiment [1] came to 0.19 nM; in experiment [2], 0.51 nM.
Turning to `CC(C)(C)OC(=O)N1CCC(CC#N)(n2nc(Nc3ccc(C4(C(F)(F)F)CCN(Cc5ccccc5)C4)cc3)c3c(=O)[nH]ccc32)CC1` (single isomer, unassigned) [Example 5-281, (S or R) tert-butyl 4-(3-((4-(1-benzyl-3-(trifluoromethyl)pyrrolidin-3-yl)phenyl)amino)-4-oxo-4,5-dihydro-1H-pyrazolo[4,3-c]pyridin-1-yl)-4-(cyanomethyl)piperidine-1-carboxylate], the half-inhibitory concentration (IC50) in experiment [1] turned out to be 7.9 nM; in experiment [2], 10 nM.
On to `N#CCC1(n2nc(Nc3ccc(C(N)C(F)(F)F)cc3)c3c(=O)[nH]ccc32)CCCC1` (single isomer, unassigned) [Example 5-88, (R or S)-2-(1-(3-((4-(1-amino-2,2,2-trifluoroethyl)phenyl)amino)-4-oxo-4,5-dihydro-1H-pyrazolo[4,3-c]pyridin-1-yl)cyclopentyl)acetonitrile], for which the half-maximal inhibitory concentration (IC50) was 0.46 nM in experiment [1] and 1.56 nM in experiment [2].
`CS(=O)(=O)c1ccc(Nc2nn(C3(CC#N)CCN(c4cc(C(F)(F)F)ccn4)CC3)c3cc[nH]c(=O)c23)cc1` [Example 15-1, 2-(4-(3-((4-(methylsulfonyl)phenyl)amino)-4-oxo-4,5-dihydro-1H-pyrazolo[4,3-c]pyridin-1-yl)-1-(4-(trifluoromethyl)pyridin-2-yl)piperidin-4-yl)acetonitrile]: the values for the IC50 in experiment [1] and in experiment [2] were 0.16 nM and 0.37 nM, respectively.
The corresponding values for `CC(C)S(=O)(=O)c1ccc(Nc2nn([C@]3(CC#N)CC[C@@H](C(=O)OC(C)(C)C)OC3)c3cc[nH]c(=O)c23)cc1` [Example 5-98, (2S,5S)-tert-butyl 5-(cyanomethyl)-5-(3-((4-(isopropylsulfonyl)phenyl)amino)-4-oxo-4,5-dihydro-1H-pyrazolo[4,3-c]pyridin-1-yl)tetrahydro-2H-pyran-2-carboxylate] are 0.07 nM and 0.18 nM.
The corresponding values for `COC(=O)N1CCC(CC#N)(n2nc(Nc3ccc4c(c3)CN(CC3CC3)S4(=O)=O)c3c(=O)[nH]ccc32)CC1` [Example 5-74, methyl 4-(cyanomethyl)-4-(3-{[2-(cyclopropylmethyl)-1,1-dioxo-2,3-dihydro-1,2-benzothiazol-5-yl]amino}-4-oxo-1H,4H,5H-pyrazolo [4,3-c]pyridin-1-yl) piperidine-1-carboxylate] are 0.06 nM and 0.27 nM.
Regarding `N#CC[C@]1(n2nc(Nc3ccc(OC(F)(F)F)cc3)c3c(=O)[nH]ccc32)CC[C@@H](Nc2ccccc2)CC1` [Example 18-17, Cis 2-(1-(4-oxo-3-((4-(trifluoromethoxy)phenyl)amino)-4,5-dihydro-1H-pyrazolo[4,3-c]pyridin-1-yl)-4-(phenylamino)cyclohexyl)acetonitrile], the IC50 in experiment [1] was found to be 120 nM; in experiment [2], 1100 nM.
The corresponding values for `N#CCC1(n2nc(Nc3ccc(Cl)cc3)c3c(=O)[nH]ccc32)CCC(O)CC1` (stereo not drawn) [Example 18-12, Cis and trans 2-(1-(3-((4-chlorophenyl)amino)-4-oxo-4,5-dihydro-1H-pyrazolo[4,3-c]pyridin-1-yl)-4-hydroxycyclohexyl)acetonitrile] are 5.41 nM and 38.5 nM.
On the same counts, the results for `CC(C)OC(=O)N1CCC(CC#N)(n2nc(Nc3ccnc(F)c3)c3c(=O)[nH]ccc32)CC1` [Example 13-1, isopropyl-4-(cyanomethyl)-4-(3-(2-fluoropyridin-4-ylamino)-4-oxo-4,5-dihydropyrazolo[4,3-c]pyridin-1-yl)piperidine-1-carboxylate] are 0.22 nM and 3.82 nM.
The corresponding values for `CC(C)(C)OC(=O)[C@@H]1CC[C@@](CC#N)(n2nc(Nc3ccc(C(C)(O)C(F)(F)F)cc3)c3c(=O)[nH]ccc32)CO1` (single isomer, unassigned) [Example 5-170, (2S,5S)-tert-butyl 5-(cyanomethyl)-5-(4-oxo-3-((4-((S or R)-1,1,1-trifluoro-2-hydroxypropan-2-yl)phenyl)amino)-4,5-dihydro-1H-pyrazolo[4,3-c]pyridin-1-yl)tetrahydro-2H-pyran-2-carboxylate] are 0.14 nM and 0.48 nM.
For `N#CC[C@]1(n2nc(Nc3ccnc(F)c3)c3c(=O)[nH]ccc32)CCCC[C@H]1F` [Example 5-152, 2-((1R,2R)-2-fluoro-1-(3-((2-fluoropyridin-4-yl)amino)-4-oxo-4,5-dihydro-1H-pyrazolo[4,3-c]pyridin-1-yl)cyclohexyl)acetonitrile], the IC50 was found to be 0.09 nM in experiment [1] and 0.68 nM in experiment [2].
Consider `N#CC[C@@]1(n2nc(Nc3ccc(Cl)cc3)c3c(=O)[nH]ccc32)CCOC1` (single isomer, unassigned) [Example 5-241, [(3R or 3S)-3-{3-[(4-chlorophenyl)amino]-4-oxo-4,5-dihydro-1H-pyrazolo[4,3-c]pyridin-1-yl}tetrahydrofuran-3-yl]acetonitrile], for which the IC50 in experiment [1] stood at 2.62 nM; in experiment [2], 23.4 nM.
On the same counts, the results for `CNc1nn(C2(CC#N)CCN(C(=O)OC(C)(C)C)CC2)c2cc[nH]c(=O)c12` [Example 2-5, tert-butyl 4-(cyanomethyl)-4-[3-(methylamino)-4-oxo-4,5-dihydro-1H-pyrazolo [4,3-c]pyridin-1-yl] piperidine-1-carboxylate] are 20.3 nM and 490 nM.
For the compound `CC(C)(C)OC(=O)[C@@H]1CC[C@@](CC#N)(n2nc(Nc3ccc4c(c3)CN(CC(F)(F)F)S4(=O)=O)c3c(=O)[nH]ccc32)CO1` [Example 5-44, (2S,5S)-tert-butyl 5-(cyanomethyl)-5-(3-((1,1-dioxido-2-(2,2,2-trifluoroethyl)-2,3-dihydrobenzo[d]isothiazol-5-yl)amino)-4-oxo-4,5-dihydro-1H-pyrazolo[4,3-c]pyridin-1-yl)tetrahydro-2H-pyran-2-carboxylate], the IC50 turned out to be 0.14 nM in experiment [1] and 0.37 nM in experiment [2].
The corresponding values for `CC(C)(C)OC(=O)N1CCC(CC#N)(n2nc(NCC3CC3)c3c(=O)[nH]ccc32)CC1` [Example 2-2, tert-butyl 4-(cyanomethyl)-4-{3-[(cyclopropylmethyl)amino]-4-oxo-4,5-dihydro-1H-pyrazolo[4,3-c]pyridin-1-yl}piperidine-1-carboxylate] are 49.9 nM and 39.8 nM.
The corresponding values for `CC(C)(C)OC(=O)N1CCC(CC#N)(n2nc(Nc3ccc4c(c3)CNC4)c3c(=O)[nH]ccc32)CC1` [Example 5-66, tert-butyl 4-(cyanomethyl)-4-(3-(isoindolin-5-ylamino)-4-oxo-4,5-dihydropyrazolo[4,3-c]pyridin-1-yl)piperidine-1-carboxylate] are 0.26 nM and 0.43 nM.

(Values after US9957264B2 (Merck Sharp & Dohme Corp., priority 2013, dated 2018).)
